Results taken from PMC6302903, “Protein and Chemical Determinants of BL-1249 Action and Selectivity for K2P Channels” (ACS Chemical Neuroscience, 2018).

Key:
[1] = molecular target: T1, K2P2.1(TREK-1)Δ322 (Mus musculus, UniProt P97438); assay: TEVC of C-terminal truncation at residue 322; type: cell-based; conditions: Xenopus oocytes, saturation not reached, fit with upper boundary of 15 (I/I0)
T1 construct: truncations at residue 322, K2P2.1(TREK-1)Δ322, equivalent to a previously described mutant called Δ89; expressed in transfected cells; host or cells: Xenopus laevis oocytes, mRNA injected
T1 sequence (P97438 1-322 isoform P97438-2): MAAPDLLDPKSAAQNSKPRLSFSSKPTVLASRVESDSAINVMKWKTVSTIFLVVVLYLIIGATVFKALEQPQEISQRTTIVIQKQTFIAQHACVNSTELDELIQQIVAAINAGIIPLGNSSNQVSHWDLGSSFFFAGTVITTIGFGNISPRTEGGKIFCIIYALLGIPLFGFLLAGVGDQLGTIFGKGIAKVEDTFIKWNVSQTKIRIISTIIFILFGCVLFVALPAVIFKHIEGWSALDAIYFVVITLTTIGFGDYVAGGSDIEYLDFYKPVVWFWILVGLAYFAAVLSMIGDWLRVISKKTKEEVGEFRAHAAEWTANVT
Source text: Constructs for murine K2P channels, including K2P2.1(TREK-1) (Gene ID 16526), K2P10.1(TREK-2) (Gene ID 72258), K2P4.1(TRAAK) (Gene ID 16528), K2P5.1(TASK-2) (Gene ID 16529), K2P3.1(TASK-1) (Gene ID 16527), K2P9.1(TASK-3) (Gene ID 223604), and K2P18.1(TRESK) (Gene ID 332396) in pGEMHE/pMO, were used for Xenopus oocyte experiments as previously described.[10],[26] Murine K2P2.1(TREK-1) (Gene ID 16526) was expressed in HEK-293 cells using a pIRES-EGFP construct as previously described.[26] Murine K2P13.1(THIK-1) (Gene ID 217826) and K2P1.1(TWIK-1) (Gene ID 16525) were cloned into pGEMHE/pMO for use in Xenopus oocytes. […]
(§1) Xenopus laevis oocytes were harvested in accordance with UCSF IACUC protocol AN129690 and digested in calcium-free ND-96 (96 mM NaCl, 2 mM KCl, 3.8 mM MgCl2) immediately following harvest, as previously described.[6],[10] […] Defolliculated stage V–VI oocytes were injected with 0.2–6.0 ng of mRNA in 50 nL, and currents were recorded 24–48 h after injection. mRNA was synthesized from plasmid DNA using mMessage mMachine Kit (T7 promoter, Ambion, Life Technologies) and purified using RNEasy Kit (Qiagen). […] Once stabilized basal currents were recorded, compounds were perfused at various concentrations in standard ND96 and currents were allowed to increase to stabilization before recording final current. […]

[2] = molecular target: T2, K2P9.1(TASK-3) (Mus musculus, UniProt Q3LS21); assay: TEVC of K2P9.1(TASK-3) in Xenopus oocytes; type: cell-based; conditions: concentrations up to the solubility limit (∼80 μM)
T2 construct: expressed in transfected cells; host or cells: Xenopus laevis oocytes (mRNA injection, pGEMHE/pMO)
T2 sequence (Q3LS21 whole entry): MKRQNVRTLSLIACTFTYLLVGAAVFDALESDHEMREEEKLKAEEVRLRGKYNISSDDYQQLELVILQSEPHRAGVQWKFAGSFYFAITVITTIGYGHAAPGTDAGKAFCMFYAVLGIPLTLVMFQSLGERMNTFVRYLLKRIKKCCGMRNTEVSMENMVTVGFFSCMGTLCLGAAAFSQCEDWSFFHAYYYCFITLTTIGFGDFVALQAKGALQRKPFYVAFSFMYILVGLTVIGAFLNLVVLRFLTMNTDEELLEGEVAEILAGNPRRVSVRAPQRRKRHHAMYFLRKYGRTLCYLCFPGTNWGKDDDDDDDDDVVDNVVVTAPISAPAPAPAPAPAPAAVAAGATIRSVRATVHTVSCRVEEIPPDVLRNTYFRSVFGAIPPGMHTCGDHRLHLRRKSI
Procedure: BL-1249 activates K2P2.1(TREK-1)[18],[40] and K2P10.1(TREK-2),[7] but its effects on other K2P channels have not been characterized. […] In order to test if the original 10 μM assay had missed BL-1249 effects in other K2P channels, we tested concentrations of BL-1249 up to the solubility limit (∼80 μM) against the other K2P subfamily representatives. […]
as §1, with “current. Fold activation upon compound application is expressed as I/I0 (0 mV), derived from the current at 0 mV in the presence of compound divided by the basal current at 0 mV in standard ND96 without compound. Data were analyzed and plotted using Graphpad Prism Version 5 (GraphPad Software, San Diego California USA, www.graphpad.com).” for “current.”

## c1ccc(-c2nnn[nH]2)c(Nc2cccc3c2CCCC3)c1 [BL-1249, (5,6,7,8-tetrahydro-naphthalen-1-yl)-[2-(1H-tetrazol-5-yl)-phenyl]-amine]
[1]
  EC50: 26 ± 8 µM
[2]
  activation of K2P9.1(TASK-3): failed to find evidence for activation
